Results from EP0833161A1, “Method for maintaining a continuously-saturated level of ascorbic acid in a patient's body” (Ordman, Alfred B., priority 1996, dated 1998).

Columns and labels:
[1] = Effect of twice-daily doses of vitamin C on urinary output (DCIP assay); type: in vivo, human; conditions: for urinary excretion: one individual
Experimental: Twice-daily doses of 500 mg were sufficient to elevate vitamin C in the urine continuously as shown for 5 individuals in Fig. 4.
(§1) Vitamin C was assayed by the 2,6-dichlorophenolindophenol (DCIP) assay (see Omaye, T. S. et al. "Selected Methods for the Determination of Ascorbic Acid in Animal Cells," in Methods Enzymol.: Vitamins and Coenzymes, Vol. 62, edited by McCormick, D. B. and L. D. Wright, New York, Academic Press, 1979, pp. 3-11). Samples diluted to 0-40 µg ascorbic acid with 5% phosphoric acid were assayed in a citrate/acetate buffer by reaction with DCIP, and the color at 520 nm compared with standards. Samples were assayed in duplicate and each experiment was repeated.
In order to achieve such sustained presence of vitamin C in urine, it is instead necessary to take it at least twice daily, as shown in Fig. 3. Different dosages (from 0.25 to 2.0 grams) of vitamin C were administered to a representative subject every 12 hours, at times 0 and 12 hour in the figure, on four separate days of a four week period. The mass of vitamin C present in the urine was measured at every micturition. The individual was tested one day of the week for four consecutive weeks with progressively increasing dosages followed by six-day periods of rest. As illustrated by the figure, taking at least 500 mg twice daily led to continuously elevated levels of vitamin C in the urine tested.
Each micturition during the entire 24 hours was collected and the total mass of vitamin C excreted by each subject was measured by the DCIP assay. In yet another experiment, two daily doses of 0.5 grams of vitamin C were taken daily for 8 days, then no pills were taken for a week, and then 0.5 g daily were taken again for another 8 days. Each micturition during the first and last 24 hr of each 8 day period was collected and assayed to determine the total mass of vitamin C excreted.

[2] = 500 mg dose, average person, within the first 12 hr after ingestion; cited from earlier work
[3] = Rate of urinary excretion of a single daily dose of vitamin C, every micturition assayed (DCIP assay); type: in vivo, human
Experimental: In order to determine how rapidly vitamin C is excreted, several individuals took 2 grams of vitamin C daily (single dose) for 8 consecutive days, and collected samples and measured the volume of every micturition during the first and last day. The experiment was repeated with the same individuals after a seven-day rest. Each sample was analyzed to determine the time period, concentration range, and total urinary excretion of vitamin C. The results arc shown in Fig. 2 for three representative individuals. Vitamin C concentration in the urine increased after 4 hours from time of intake and remained elevated for a total of 12 hours, consistent with the hypothesis that vitamin C levels in the body are not elevated for an entire 24 hour period by a single daily dose.
as §1
Fig. 2 illustrates the effect of two grams of daily single-dose vitamin C taken orally for eight days, followed by six days with no intake, and then by eight more days of two grams taken daily in a single dose. Each micturition during the first and last 24 hours of each eight-day period was collected and assayed to determine the total mass of vitamin C excreted. Figures 2a-2c represent excretion from three different individuals.

[4] = Effect of single daily dose of vitamin C on total 24-hour urinary excretion (DCIP assay); type: in vivo, human
Experimental: In order to determine how daily dosages related to total excretion and whether high daily doses would alter the rate of excretion after a week, groups of test subjects took either 0, 0.25, 1, or 2 gram doses of vitamin C at 8 am daily for 8 consecutive days. All urine was collected and pooled on day 1 and on day 8. The concentration was assayed and the total amount of vitamin C excreted during the 24-hour period was determined, as shown in Fig. 1.
as §1
Vitamin C was administered daily to five individuals at 8 am for eight consecutive days. All urine for each individual was collected during the first and last 24-hour periods and the total amount of vitamin C excreted in the urine was determined by DCIP assay.

O=C1O[C@H]([C@@H](O)CO)C(O)=C1O [vitamin C, ascorbic acid]
urinary excretion ([1]; 250 mg every 12 hours): did not cause detectable excretion in amounts exceeding normal quantities
urinary excretion ([1]; 500 mg or higher (up to 2000 mg) every 12 hours): continuously-detectable elevated levels of excretion
vitamin C in the urine ([1]; 500 mg twice daily for a week, first and last day): remains continuously elevated
fraction of dose absorbed into the body [2]: about 60%
share of ingested vitamin C detected in the urine ([3]; 2 grams daily, single dose): only a small percentage
excretion pattern, first versus last day ([3]; 2 grams daily, single dose, 8 consecutive days): No noticeable difference
time from intake after which vitamin C concentration in the urine increased ([3]; in vivo): 4 h
total time vitamin C concentration in the urine remained elevated ([3]; in vivo): 12 h
rate of urinary excretion versus daily dose ([4]; 0, 0.25, 1 or 2 gram doses at 8 am daily, 24-hour pooled urine): increased with increasing daily doses
intake rate at which a consistently elevated urinary level (greater than SD) begins ([4]; in vivo): 250-500 mg per day
one-time dose necessary for detectable excretion ([4]; in vivo): 500 mg
vitamin C levels in urine ([4]; in vivo): no detectable vitamin C levels in urine
amount excreted on day 8 compared with day 1 ([4]; single daily dose for 8 consecutive days, 24-hour pooled urine): similar
